# Results as given in publication PMC6522912, “Evaluation of the published kinase inhibitor set to identify multiple inhibitors of bacterial ATP-dependent mur ligases” (Journal of Enzyme Inhibition and Medicinal Chemistry, 2019).
# Like-named read-outs stand apart in the source and are kept apart here.
# Experiments:
# E. coli MurC = E. coli MurC (Escherichia coli, UniProt P17952); experiment: Malachite green inhibition assay, MurC; format: biochemical; settings: for remaining activity at 100 µM: 0.25 h; for RA (%) MurC: Table S3, aza stilbene compounds
# Chain of E. coli MurC (P17952 whole entry): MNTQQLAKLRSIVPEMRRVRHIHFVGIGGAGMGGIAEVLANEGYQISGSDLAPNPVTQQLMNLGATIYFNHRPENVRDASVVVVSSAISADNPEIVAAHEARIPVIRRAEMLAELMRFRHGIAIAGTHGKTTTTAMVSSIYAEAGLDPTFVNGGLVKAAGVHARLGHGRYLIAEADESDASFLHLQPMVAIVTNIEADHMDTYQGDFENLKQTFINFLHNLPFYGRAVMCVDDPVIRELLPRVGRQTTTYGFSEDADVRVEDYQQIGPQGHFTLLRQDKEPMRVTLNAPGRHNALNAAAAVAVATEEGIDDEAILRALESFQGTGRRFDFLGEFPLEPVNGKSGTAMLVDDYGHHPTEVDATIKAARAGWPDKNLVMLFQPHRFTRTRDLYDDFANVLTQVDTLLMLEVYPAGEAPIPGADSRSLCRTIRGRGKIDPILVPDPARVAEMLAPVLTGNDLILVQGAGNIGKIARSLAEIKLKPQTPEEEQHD
# Procedure: (§1) Inhibition of the Mur ligases was determined using the malachite green assay, with slight modifications.
# (§2) In all cases, the final concentration of DMSO was 5% (v/v). After incubation for 15 min at 37 °C, the enzyme reaction was terminated by addition of 100 µM Biomol green reagent, and the absorbance was measured at 650 nm after 5 min. All of the experiments were run in duplicate. Residual activities were calculated with respect to control assays without the tested compounds, but with the 5% DMSO carrier.
# (§3) The published kinase inhibitor set compounds were evaluated for inhibition of MurC, D and F ligases from E. coli using the Malachite green assay, which detects orthophosphate generated during enzymatic reactions. To avoid non-specific inhibition due to aggregate formation, all of the compounds were tested in the presence of detergent (0.005% Triton-X114). The data are presented as the residual activities of these Mur ligases in the presence of 100 µM of each test compound (Supporting Information Table S1). […] Additionally, regarding the data of profiled compounds in large panels of human kinase assays[41]
# E. coli MurD = E. coli MurD (Escherichia coli, UniProt P14900); experiment: biochemical; settings: for remaining activity at 100 µM: 0.25 h, Table S1, PKIS screening, read-out: RA [%] at 100 µM MurD
# Chain of E. coli MurD (P14900 whole entry): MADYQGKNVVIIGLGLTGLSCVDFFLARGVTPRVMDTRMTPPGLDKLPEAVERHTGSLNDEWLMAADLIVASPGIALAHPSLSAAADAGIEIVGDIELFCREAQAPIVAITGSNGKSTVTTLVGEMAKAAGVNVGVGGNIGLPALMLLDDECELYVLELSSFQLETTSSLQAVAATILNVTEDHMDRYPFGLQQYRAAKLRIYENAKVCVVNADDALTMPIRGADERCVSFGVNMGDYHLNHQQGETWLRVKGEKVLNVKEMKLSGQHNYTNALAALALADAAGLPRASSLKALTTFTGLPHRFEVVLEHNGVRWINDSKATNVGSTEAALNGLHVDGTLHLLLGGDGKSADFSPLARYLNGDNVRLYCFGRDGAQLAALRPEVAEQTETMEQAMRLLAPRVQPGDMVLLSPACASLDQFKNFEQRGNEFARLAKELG
# Procedure: as §1, §2
# The published kinase inhibitor set compounds were evaluated for inhibition of MurC, D and F ligases from E. coli using the Malachite green assay, which detects orthophosphate generated during enzymatic reactions. To avoid non-specific inhibition due to aggregate formation, all of the compounds were tested in the presence of detergent (0.005% Triton-X114). The data are presented as the residual activities of these Mur ligases in the presence of 100 µM of each test compound (Supporting Information Table S1).
# E. coli MurF = E. coli MurF (Escherichia coli, UniProt P11880); experiment: biochemical; settings: for remaining activity at 100 µM: 0.25 h, read-out: RA [%] at 100 µM MurF; for remaining activity at 100 µM / RA [%] at 100 µM MurF: Table S1, PKIS screening; for RA (%) MurF: Table S3, aza stilbene compounds
# Chain of E. coli MurF (P11880 whole entry): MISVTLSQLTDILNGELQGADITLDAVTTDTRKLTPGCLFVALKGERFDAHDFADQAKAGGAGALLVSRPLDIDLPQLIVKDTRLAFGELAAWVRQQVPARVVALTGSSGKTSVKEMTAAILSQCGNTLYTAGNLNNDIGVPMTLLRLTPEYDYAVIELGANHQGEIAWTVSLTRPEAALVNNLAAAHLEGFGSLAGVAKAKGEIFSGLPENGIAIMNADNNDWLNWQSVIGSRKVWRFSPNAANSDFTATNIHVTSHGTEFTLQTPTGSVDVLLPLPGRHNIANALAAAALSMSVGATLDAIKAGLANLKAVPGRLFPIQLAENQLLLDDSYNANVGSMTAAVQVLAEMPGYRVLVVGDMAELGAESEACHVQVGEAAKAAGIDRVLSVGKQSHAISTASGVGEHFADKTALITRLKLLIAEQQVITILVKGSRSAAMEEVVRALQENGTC
# Procedure: as §1, §2, §3
# [1] = Table S1, PKIS screening, read-out: RA [%] at 100 µM MurC
# [2] = read-out: RA [%] at 100 µM MurC, Table S1, PKIS screening
SMILES,remaining activity at 100 µM (E. coli MurC; [1]) [%],remaining activity at 100 µM (E. coli MurD) [%],remaining activity at 100 µM (E. coli MurF) [%],also measured
FC(F)(F)c1cccc(Nc2nccc(-c3cnn4nc(-c5ccccc5)ccc34)n2)c1 [GW819077X],50,63,58,
CC1=C(C(=O)Nc2cc(Cl)c3[nH]ncc3c2)C(c2ccc(C(F)(F)F)cc2)CC(=O)N1 (stereo not shown) [GSK466317A],80,99,71,
Cc1ccc(O)cc1Nc1ccnc2cc(-c3ccccn3)ccc12 [GW440139B],,,,"RA [%] at 100 µM MurC (E. coli MurC; Table S1, PKIS screening): 73%; RA [%] at 100 µM MurD (E. coli MurD): 73; RA [%] at 100 µM MurF (E. coli MurF): 66%"
NC(=O)c1cc(-c2ccncc2)cc(-c2ccccc2)c1N [GSK625137A],65,95,84,
Cc1cc(O)cc(C)c1/C=C/c1cncc(-c2nn[nH]n2)c1 [GW441806A],70,91,90,
CC1=C(C(=O)Nc2ccc3[nH]ncc3c2)C(c2ccc3ccccc3c2)CC(=O)N1 (stereo not shown) [GSK270822A],66,81,68,
COc1ccc(-c2coc3ncnc(N)c23)cc1 [GW642125X],100,83,85,
CN1CCC(n2cnc(-c3ccc(F)cc3)c2-c2ccnc(N)n2)CC1 [SB-220455],,81,100,remaining activity at 100 µM (E. coli MurC; [2]): 76%
COc1cc(N2CCN(C(C)C)CC2)ccc1Nc1nc(Nc2ccc(F)cc2C(N)=O)c2cc[nH]c2n1 [GSK1220512A],,48,54,remaining activity at 100 µM (E. coli MurC; [2]): 2%
CS(=O)(=O)CCNCc1ccc(-c2ccc3ncnc(Nc4ccc(OCc5ccccc5)c(C(F)(F)F)c4)c3c2)o1 [GW574782A],83,60,100,
O=S(=O)(CCNCc1ccc(-c2ccc3ncnc(Nc4ccc(OCc5cccc(F)c5)c(Cl)c4)c3c2)o1)c1ccccc1 [GW633459A],100,80,84,
O=C(Nc1ccc(Oc2ccc3nc(NC(=O)c4ccco4)[nH]c3c2)cc1)Nc1cc(C(F)(F)F)ccc1F [GW683134A],74,86,100,
CNC(=O)c1ncccc1Nc1nc(Nc2cc3c(cc2OC)CCCN3C(=O)CN(C)C)nc2[nH]ccc12 [GSK2220400A],,84,81,remaining activity at 100 µM (E. coli MurC; [2]): 69%
COc1ccc(-c2ccncc2)cc1C(N)=O [GSK605714A],86,91,90,
c1ccc(COc2ccc(Nc3ncnc4ccc(-c5ccco5)cc34)cc2)cc1 [GW284372X],56,80,100,
Cc1cc(O)cc(C)c1C=Cc1cncc(C(=O)OC(C)(C)C)c1 [Compound 16],,,,RA (%) MurC (E. coli MurC): 75%; RA (%) MurD (E. coli MurD): 96%; RA (%) MurF (E. coli MurF): 69%
[O-][S+]1CCN(Cc2ccc(-c3ccc4ncnc(Nc5ccc(OCc6ccccc6)c(F)c5)c4c3)o2)CC1 [GW576924A],39,85,58,
CCCN1CCC(Oc2cc(Nc3nc(Nc4cccc(F)c4C(N)=O)c4cc[nH]c4n3)c(OC)cc2Cl)CC1 [GSK1713088A],59,54,85,
Cc1cc(Cl)cc2c1NC(=O)C2=NNc1ccc(S(N)(=O)=O)cc1 [GW279320X],76,78,0,
O=C(O[C@H]1CN[C@H](C#Cc2cc3ncnc(Nc4ccc5c(cnn5Cc5ccccc5)c4)c3s2)C1)N1CCOCC1 [GSK200398A],52,61,60,
O=C1Nc2ccc(I)cc2C1=Cc1cc(Br)c(O)c(Br)c1 [GW305074X],100,92,78,
Nc1nonc1-c1nc2cnccc2n1C1CC1 [SB-736302],92,100,77,
Cc1cc(-c2ccccn2)cc(C)c1C=Cc1cncc(-c2nn[nH]n2)c1 [Compound 6],,,,RA (%) MurC (E. coli MurC): 59%; RA (%) MurD (E. coli MurD): 83%; RA (%) MurF (E. coli MurF): 76%
Nc1nonc1-c1nc2cnccc2n1C1CCCCC1 [SB-734117],100,79,93,

SMILES,remaining activity at 100 µM (E. coli MurC; [1]) [%],remaining activity at 100 µM (E. coli MurD) [%],remaining activity at 100 µM (E. coli MurF) [%],also measured
COc1ccc2cc(-c3c(-c4ccncc4)nc(-c4ccc([S+](C)[O-])cc4)n3C)ccc2c1 (stereo not shown) [SB-437013],70,58,70,
C#Cc1cccc(Nc2ncnc3ccc(OCCCCNCCS(C)(=O)=O)cc23)c1 [GW680191X],75,93,102,
O=C1Nc2ccc(-c3cccnc3)cc2C1=Cc1cc(Br)c(O)c(Br)c1 [GW429374A],30,51,16,
COc1cc2ncn(-c3cc(OCc4cccs4)c(C(N)=O)s3)c2cc1OC [GSK312948A],98,72,79,
COc1ccc(C2=C(N3CCc4ccccc43)C(=O)NC2=O)cc1 [SB-361058],100,100,97,
COc1cccc(-c2c[nH]c3c(N/N=C/c4ccncc4)ncnc23)c1 [GW814408X],98,,87,
CS(=O)(=O)Nc1ccc(N/C=C2\C(=O)Nc3ccccc32)cc1 [GW278681X],71,89,77,
O=S(=O)(CCOCc1ccc(-c2ccc3ncnc(Nc4ccc(OCc5cccc(F)c5)c(Cl)c4)c3c2)o1)c1ccccc1 [GW615311X],97,91,100,
COc1cc2ncn(-c3cc(OCc4ccccc4Cl)c(C(N)=O)s3)c2cc1OC [GW852849X],67,81,85,
CN(C)c1ccc2c(c1)/C(=C/Nc1ccc(S(N)(=O)=O)cc1)C(=O)N2 [GW416469X],76,89,79,
c1ccc(Nc2ncc(-c3ccccc3)o2)cc1 [GW549390X],85,92,93,
Clc1ccc(CNc2nccc(-c3cnn4ncccc34)n2)cc1 [GW781673X],79,,63,
CS(=O)(=O)Nc1cccc(-c2ccc3c(NC(=O)C4CC4)n[nH]c3c2)c1 [SB-742864],64,88,99,
COc1cc2ncn(-c3cc(O[C@@H](C)c4ccccc4Cl)c(C(N)=O)s3)c2cc1OC [GSK237700A],,,75,
COc1cccc(-n2ncc3c(N/N=C/c4ccncc4)ncnc32)c1 [GW784752X],76,,93,
c1ccc(Oc2ccc(Nc3ncc(-c4ccccc4)o3)cc2)cc1 [GW641155A],66,,86,
Cc1cccc2c1NC(=O)C2=NNc1ccc(S(N)(=O)=O)cc1 [GW282536X],93,,27,
NC(=O)c1cccc(Nc2nccc(Nc3cccc(F)c3)n2)c1 [GW759710A],100,,100,
Cc1cc(O)cc(Nc2ccnc3cc(-c4ccccn4)ccc23)c1 [GSK3206866A],,,,"RA [%] at 100 µM MurC (E. coli MurC; Table S1, PKIS screening): 76%; RA [%] at 100 µM MurF (E. coli MurF): 29%"
Cn1c(-c2nonc2N)nc2cnccc21 [SB-736290],71,,90,
COc1cc(Nc2ncc3c(C)nc(-c4cccc(C(F)(F)F)c4)n3n2)cc(OC)c1OC [GW837331X],65,,89,
CCn1c(-c2nonc2N)nc2ccccc21 [SB-693162],78,,100,
CC(=O)NCc1cccc(C#Cc2cncnc2Nc2ccc(OCc3cccc(F)c3)c(Cl)c2)c1 [GW807930X],66,,69,
OCc1ccc(-c2nc(-c3ccccn3)c(-c3ccc4c(c3)OCO4)[nH]2)cc1 [SB-431533],95,,75,
